This note sets out measurements from patent US11542259B2, “Compounds for the treatment of kinase-dependent disorders” (Exelixis, Inc., priority 2018, dated 2023).

For assay [1], the target named is Human Axl (residues H473-A894 with Q764R) (Homo sapiens (Human), UniProt P30530, Q764R). Put plainly: Human AXL kinase assay (33P radiometric, KinaseProfiler). The format is biochemical. The conditions noted are these: 10 μM ATP. As for the experimental part: (§1) Kinase activity and compound inhibition were investigated using the ^33P-Phosphoryl transfer radiometric kinase assay, performed using the KinaseProfiler™ service of Eurofins Pharma Discovery Services UK Limited. Dose-response experiments were performed using nine compound concentrations in a 96-well microtiter plate. For each assay, all compounds were prepared to a 50× final assay concentration (50 μM) in 100% DMSO, then diluted in a half-log series, with the final top concentration at 1 μM. This working stock of the compound was added to the assay well as the first component in the reaction, followed by the remaining components as detailed in the following assay protocols below. The positive control wells (100% kinase activity) contain all components of the reaction including 2% DMSO (control for solvent effects), except the compound of interest. Blank wells contain all components of the reaction, with the reference inhibitor, staurosporine. This reference compound was used to abolish kinase activity and generated the 0% kinase activity base-line. IC50 values were calculated by nonlinear regression analysis using the sigmoidal dose-response (variable slope) curve fit on XLFit version 5.3 (ID Business Solutions).
Human Axl (residues H473-A894 with Q764R, 161 nM) was incubated with 8 mM MOPS pH 7.0, 0.2 mM EDTA, 250 μM KKSRGDYMTMQIG (SEO ID NO. 43) 10 mM magnesium acetate and 10 μM [γ-33P-ATP]. The reaction was initiated by the addition of the Mg/ATP mix. After incubation for 40 minutes at room temperature, the reaction was stopped by the addition of phosphoric acid to a concentration of 0.5%. A reaction aliquot of 10 μL was then spotted onto a P30 filtermat and washed four times for 4 minutes in 0.425% phosphoric acid and once in methanol prior to drying and scintillation counting. Incorporated ^33P was measured using the Wallac Microbeta scintillation counter (Perkin Elmer).

Assay [2] addresses Human Met (residues R974-S1390 with A1209G and V1290L) (Homo sapiens, UniProt P08581). Description: Human Met kinase assay (33P radiometric, KinaseProfiler). As to conditions: 10 μM ATP, read-out: c-Met IC50. The format is biochemical. As for the experimental part: as §1
Human Met (residues R974-S1390 with A1209G and V1290L, 3.4 nM) was incubated with 8 mM MOPS pH 7.0, 0.2 mM EDTA, 250 μM KKKGQEEEYVFIE (SEO ID NO. 45), 1 mM sodium orthovanadate, 5 mM […], 10 mM magnesium acetate, and 10 μM [γ-33P-ATP]. The reaction was initiated by the addition of the Mg/ATP mix. After incubation for 40 minutes at room temperature, the reaction was stopped by the addition of phosphoric acid to a concentration of 0.5%. A reaction aliquot of […] was then spotted onto a P30 filtermat and washed four times for 4 minutes in 0.425% phosphoric acid and once in methanol prior to drying and scintillation counting. Incorporated 33P was measured using the Wallac Microbeta scintillation counter (Perkin Elmer).

Assay [3] concerns the target Human Mer (residues R557-E882 with H628Q and R794A) (Homo sapiens (Human), UniProt Q12866). Put plainly: Human Mer kinase assay (33P radiometric, KinaseProfiler). It is filed as biochemical. The conditions noted are these: 10 μM ATP. As for the experimental part:
as §1
Human Mer (residues R557-E882 with H628Q and R794A, 0.7 nM) was incubated with 8 mM MOPS pH 7.0, 0.2 mM EDTA, 30 mM NaCl, 250 μM GGMEDIYFEFMGGKKK (SEO ID NO. 44). 10 mM magnesium acetate, and 10 μM [γ-^33P-ATP]. The reaction was initiated by the addition of the Mg/ATP mix. After incubation for 40 minutes at room temperature, the reaction was stopped by the addition of phosphoric acid to a concentration of 0.5%. A reaction aliquot of 10 μL was then spotted onto a P30 filtermat and washed four times for 4 minutes in 0.425% phosphoric acid and once in methanol prior to drying and scintillation counting. Incorporated ^33P was measured using the Wallac Microbeta scintillation counter (Perkin Elmer).

A further assay deals with KDR (Homo sapiens (Human), UniProt P35968). Put plainly: KDR autophosphorylation ELISA in HUVEC cells. It is filed as cell-based. The conditions noted are these: cellular, VEGF165 stimulated. As for the experimental part:
Human umbilical vein endothelial cells or HUVEC (Lonza #C2519A) were seeded at 2×10^4 cells/well onto 96-well plates (Corning #3904), in EGM-2 growth medium (Lonza #CC-3162) containing 1% Penicillin Streptomycin (Thermo Fisher #15140-122). HUVEC cells were incubated at 37° C., 5% CO2 for 24 h and then starved for 24 h in serum-free EBM-2 basal medium (Lonza #CC-3156) containing 1% Penicillin Streptomycin. Test compounds were serially diluted to produce an 8-point dose curve in fresh serum-free medium to a final concentration of 0.3% DMSO (vehicle) and added to the cells and incubated for 1 h. Cells were then stimulated with 100 ng/mL recombinant human VEGF165 (R&D Systems #293-VE-500) for 5 min, washed with cold PBS, and immediately lysed with 130 μL of cold 1× lysis buffer [20 mM Tris, 137 mM sodium chloride, 2 mM EDTA, 10% glycerol, 1% NP-40 alternative, 1 mM activated sodium orthovanadate, 1 mM PefaBloc SC (Sigma-Aldrich #11429868001), protease/phosphatase inhibitor tablet (Thermo Fisher #A32959)]. Lysates were collected and 100 μL/well added into the human phospho-KDR DuoSet IC ELISA (R&D Systems #DYC1766-2). Assay was performed according to manufacturer's instructions and sample phospho-KDR concentrations were extrapolated using human phospho-KDR control (R&D Systems #841421) as a standard. Positive control wells (100% activity) contained VEGF165-stimulated, DMSO-treated cell lysates. Negative control wells (0% activity) contained non-stimulated cell lysates. IC50 values were calculated by nonlinear regression analysis using a 4-parameter logistic curve fit in ActivityBase XE (IDBS).
Background: In an ELISA, binding on a coated surface is turned into a signal by an enzyme label.

A further assay concerns the target Met (Homo sapiens (Human), UniProt P08581). Description: Met autophosphorylation ELISA in PC-3 cells. The conditions noted are these: cellular, HGF stimulated, read-out: c-Met IC50. It is filed as cell-based. As for the experimental part: PC-3 prostate cancer cells (ATCC #CRL-1435) were seeded at 4×10^4 cells/well onto 24-well plates (Greiner #662165), in DMEM (Thermo Fisher #11995-040) containing 10% FBS (Thermo Fisher #26140-079), 1% MEM NEAA (Thermo Fisher #11140-050), 1% GlutaMax (Thermo Fisher #35050-061), and 1% Penicillin Streptomycin (Thermo Fisher #15140-122). PC-3 cells were incubated at 37° C., 5% CO2 for 24 h and then starved for 3 h in serum-free medium. Test compounds were serially diluted to produce an 8-point dose curve in fresh serum-free medium to a final concentration of 0.3% DMSO (vehicle) and added to the cells and incubated for 1 h. Cells were then stimulated with 100 ng/mL recombinant human HGF (R&D Systems #294-HG-250) for 10 min, washed with cold PBS and immediately lysed with 130 μL of cold 1× lysis buffer [20 mM Tris, 137 mM sodium chloride, 2 mM EDTA, 10% glycerol, 1% NP-40 alternative, 1 mM activated sodium orthovanadate, 1 mM PefaBloc SC (Sigma-Aldrich #11429868001), protease/phosphatase inhibitor tablet (Thermo Fisher #A32959)]. Lysates were clarified by centrifugation and 100 μL/well added into the PathScan phospho-Met (panTyr) Sandwich ELISA (Cell Signaling Technology #7333). Assay was performed according to manufacturer's instructions. Positive control wells (100% activity) contained HGF-stimulated, DMSO-treated cell lysates. Negative control wells (0% activity) contained HGF-stimulated, reference inhibitor-treated cell lysates. IC50 values were calculated by nonlinear regression analysis using a 4-parameter logistic curve fit in ActivityBase XE (IDBS).

A further assay has as its target AXL (Homo sapiens (Human), UniProt P30530). Description: AXL autophosphorylation ELISA in A-172 cells. The format is cell-based. As to conditions: cellular, Gas6 stimulated. As for the experimental part:
A-172 glioblastoma cells (ATCC #CRL-1620) were seeded at 2.5×10^5 cells/well onto 24-well plates (Greiner #662165), in DMEM (Thermo Fisher #11995-040) containing 10% FBS (Thermo Fisher #26140-079), 1% MEM NEAA (Thermo Fisher #11140-050), 1% GlutaMax (Thermo Fisher #35050-061) and 1% Penicillin Streptomycin (Thermo Fisher #15140-122). A-172 cells were incubated at 37° C., 5% CO2 for 24 h and then starved for 24 h in serum-free medium. Test compounds were serially diluted to produce an 8-point dose curve in fresh serum-free medium to a final concentration of 0.3% DMSO (vehicle) and added to the cells and incubated for 1 h. Cells were then stimulated with 1 μg/mL recombinant human Gas6 (R&D Systems #885-GSB-500) for 15 min, washed with cold PBS and immediately lysed with 150 μL of cold 1× lysis buffer [20 mM Tris, 137 mM sodium chloride, 2 mM EDTA, 10% glycerol, 1% NP-40 alternative, 1 mM activated sodium orthovanadate, 1 mM PefaBloc SC (Sigma-Aldrich #11429868001), protease/phosphatase inhibitor tablet (Thermo Fisher #A32959)]. Lysates were collected and 100 μL/well added into the human phospho-AXL DuoSet IC ELISA (R&D Systems #DYC2228-2). Assay was performed according to manufacturer's instructions and sample phospho-AXL concentrations were extrapolated using human phospho-AXL control (R&D Systems #841645) as a standard. Positive control wells (100% activity) contained Gash-stimulated, DMSO-treated cell lysates. Negative control wells (0% activity) contained Gash-stimulated, reference inhibitor-treated cell lysates. IC50 values were calculated by nonlinear regression analysis using a 4-parameter logistic curve fit in ActivityBase XE (IDBS).

Chain of Met (P08581 25-1390): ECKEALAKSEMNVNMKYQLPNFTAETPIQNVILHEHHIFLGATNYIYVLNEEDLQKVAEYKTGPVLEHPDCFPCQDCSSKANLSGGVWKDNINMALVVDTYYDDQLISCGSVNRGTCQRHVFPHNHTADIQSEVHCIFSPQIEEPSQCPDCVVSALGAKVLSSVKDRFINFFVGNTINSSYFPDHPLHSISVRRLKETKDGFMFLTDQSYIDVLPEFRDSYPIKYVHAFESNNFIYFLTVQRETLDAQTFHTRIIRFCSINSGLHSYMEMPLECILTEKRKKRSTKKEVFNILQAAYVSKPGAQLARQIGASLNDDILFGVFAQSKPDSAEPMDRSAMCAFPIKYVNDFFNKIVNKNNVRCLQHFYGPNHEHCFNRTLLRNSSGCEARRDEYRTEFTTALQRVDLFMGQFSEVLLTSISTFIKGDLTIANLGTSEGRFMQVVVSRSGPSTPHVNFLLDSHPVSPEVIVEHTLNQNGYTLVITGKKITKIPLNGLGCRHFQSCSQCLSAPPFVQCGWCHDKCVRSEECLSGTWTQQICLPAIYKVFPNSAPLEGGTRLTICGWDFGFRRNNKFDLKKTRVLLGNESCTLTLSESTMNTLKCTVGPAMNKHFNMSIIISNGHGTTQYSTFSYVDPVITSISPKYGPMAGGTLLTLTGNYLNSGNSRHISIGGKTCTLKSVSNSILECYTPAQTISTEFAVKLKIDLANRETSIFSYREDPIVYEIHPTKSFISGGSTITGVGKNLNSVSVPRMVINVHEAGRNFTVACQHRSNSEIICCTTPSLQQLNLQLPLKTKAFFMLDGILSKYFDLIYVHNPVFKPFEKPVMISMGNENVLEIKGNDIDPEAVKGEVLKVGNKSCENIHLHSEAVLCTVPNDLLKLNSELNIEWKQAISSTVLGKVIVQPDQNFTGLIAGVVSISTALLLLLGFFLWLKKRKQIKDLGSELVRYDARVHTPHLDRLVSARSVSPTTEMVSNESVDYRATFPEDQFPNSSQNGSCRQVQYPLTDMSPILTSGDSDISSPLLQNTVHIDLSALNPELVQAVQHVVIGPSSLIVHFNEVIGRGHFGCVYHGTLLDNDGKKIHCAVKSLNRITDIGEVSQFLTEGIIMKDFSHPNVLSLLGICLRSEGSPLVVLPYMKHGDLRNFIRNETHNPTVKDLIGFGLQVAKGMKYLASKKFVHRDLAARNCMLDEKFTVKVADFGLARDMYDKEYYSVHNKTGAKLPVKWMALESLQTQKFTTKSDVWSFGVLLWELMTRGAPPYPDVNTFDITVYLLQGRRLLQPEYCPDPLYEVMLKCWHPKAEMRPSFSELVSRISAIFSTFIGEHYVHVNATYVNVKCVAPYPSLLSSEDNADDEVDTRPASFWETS
Chain of AXL (P30530 26-894): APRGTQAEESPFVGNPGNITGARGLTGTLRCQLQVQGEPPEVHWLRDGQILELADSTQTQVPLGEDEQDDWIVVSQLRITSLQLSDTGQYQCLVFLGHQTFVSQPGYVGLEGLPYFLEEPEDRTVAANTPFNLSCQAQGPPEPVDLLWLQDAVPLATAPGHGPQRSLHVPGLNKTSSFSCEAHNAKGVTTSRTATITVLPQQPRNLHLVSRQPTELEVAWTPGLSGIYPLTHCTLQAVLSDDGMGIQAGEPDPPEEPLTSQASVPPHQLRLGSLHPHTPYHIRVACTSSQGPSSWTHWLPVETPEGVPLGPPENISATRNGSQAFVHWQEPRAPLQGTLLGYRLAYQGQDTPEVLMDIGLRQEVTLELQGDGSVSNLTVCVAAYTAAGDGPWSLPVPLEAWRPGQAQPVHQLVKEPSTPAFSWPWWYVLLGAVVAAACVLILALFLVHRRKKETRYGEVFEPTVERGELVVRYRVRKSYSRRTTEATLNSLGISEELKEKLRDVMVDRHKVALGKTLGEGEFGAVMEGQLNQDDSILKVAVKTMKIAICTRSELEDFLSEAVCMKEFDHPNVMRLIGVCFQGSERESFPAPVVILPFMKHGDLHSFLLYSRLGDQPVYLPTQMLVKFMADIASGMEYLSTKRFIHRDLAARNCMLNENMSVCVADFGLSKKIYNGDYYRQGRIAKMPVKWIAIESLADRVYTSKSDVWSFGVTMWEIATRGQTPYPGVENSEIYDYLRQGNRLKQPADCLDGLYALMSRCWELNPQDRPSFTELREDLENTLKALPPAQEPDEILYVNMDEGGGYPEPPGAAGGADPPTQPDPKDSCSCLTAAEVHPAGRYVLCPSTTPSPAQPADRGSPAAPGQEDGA
Chain of Human Axl (residues H473-A894 with Q764R) (P30530 473-894 Q764R): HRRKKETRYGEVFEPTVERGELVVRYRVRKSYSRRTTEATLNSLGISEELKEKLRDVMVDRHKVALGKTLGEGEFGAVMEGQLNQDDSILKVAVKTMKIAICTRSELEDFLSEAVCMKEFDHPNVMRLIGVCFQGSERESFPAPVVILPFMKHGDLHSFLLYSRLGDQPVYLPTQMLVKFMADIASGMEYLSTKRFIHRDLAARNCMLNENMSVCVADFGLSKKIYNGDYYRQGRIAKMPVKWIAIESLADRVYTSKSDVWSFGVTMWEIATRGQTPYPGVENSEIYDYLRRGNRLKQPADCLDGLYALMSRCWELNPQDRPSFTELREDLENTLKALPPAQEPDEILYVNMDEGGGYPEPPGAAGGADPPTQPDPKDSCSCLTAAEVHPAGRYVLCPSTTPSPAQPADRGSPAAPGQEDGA
Chain of KDR (P35968 20-1356): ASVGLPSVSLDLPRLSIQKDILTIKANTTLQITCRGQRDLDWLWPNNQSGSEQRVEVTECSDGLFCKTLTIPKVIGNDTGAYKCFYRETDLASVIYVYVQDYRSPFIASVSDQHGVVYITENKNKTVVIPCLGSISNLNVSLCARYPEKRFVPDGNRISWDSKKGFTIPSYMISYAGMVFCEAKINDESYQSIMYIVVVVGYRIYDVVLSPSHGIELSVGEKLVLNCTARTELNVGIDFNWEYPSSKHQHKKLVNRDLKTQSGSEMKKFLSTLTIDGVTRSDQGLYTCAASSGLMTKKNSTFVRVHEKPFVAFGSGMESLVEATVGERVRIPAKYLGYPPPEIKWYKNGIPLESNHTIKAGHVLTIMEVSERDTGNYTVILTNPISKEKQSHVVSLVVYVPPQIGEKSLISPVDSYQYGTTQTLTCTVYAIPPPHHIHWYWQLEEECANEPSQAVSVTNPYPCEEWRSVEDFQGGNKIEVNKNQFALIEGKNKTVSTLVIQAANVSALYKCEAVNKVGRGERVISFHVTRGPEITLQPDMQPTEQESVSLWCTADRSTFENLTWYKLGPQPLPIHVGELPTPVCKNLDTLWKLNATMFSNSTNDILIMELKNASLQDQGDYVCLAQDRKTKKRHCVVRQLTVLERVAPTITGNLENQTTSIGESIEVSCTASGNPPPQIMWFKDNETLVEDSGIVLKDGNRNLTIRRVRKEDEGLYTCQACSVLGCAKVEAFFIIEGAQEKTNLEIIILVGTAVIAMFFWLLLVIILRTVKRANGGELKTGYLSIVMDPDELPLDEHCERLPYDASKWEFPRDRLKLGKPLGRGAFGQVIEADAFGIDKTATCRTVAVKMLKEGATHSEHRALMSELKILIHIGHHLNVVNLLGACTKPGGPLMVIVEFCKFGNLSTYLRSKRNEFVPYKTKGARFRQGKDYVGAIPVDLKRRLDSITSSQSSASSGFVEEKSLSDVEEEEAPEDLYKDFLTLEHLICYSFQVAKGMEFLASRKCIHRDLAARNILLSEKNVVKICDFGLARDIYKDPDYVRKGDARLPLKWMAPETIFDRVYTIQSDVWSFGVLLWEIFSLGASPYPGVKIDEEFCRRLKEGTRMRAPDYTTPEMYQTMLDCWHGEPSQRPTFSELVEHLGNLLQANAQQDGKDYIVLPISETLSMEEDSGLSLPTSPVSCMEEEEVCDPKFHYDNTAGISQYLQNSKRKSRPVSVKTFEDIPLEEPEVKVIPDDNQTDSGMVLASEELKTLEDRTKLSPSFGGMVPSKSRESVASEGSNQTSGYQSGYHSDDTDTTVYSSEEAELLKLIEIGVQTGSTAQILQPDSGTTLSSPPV
Chain of Human Mer (residues R557-E882 with H628Q and R794A) (Q12866 557-882, stated change not applied): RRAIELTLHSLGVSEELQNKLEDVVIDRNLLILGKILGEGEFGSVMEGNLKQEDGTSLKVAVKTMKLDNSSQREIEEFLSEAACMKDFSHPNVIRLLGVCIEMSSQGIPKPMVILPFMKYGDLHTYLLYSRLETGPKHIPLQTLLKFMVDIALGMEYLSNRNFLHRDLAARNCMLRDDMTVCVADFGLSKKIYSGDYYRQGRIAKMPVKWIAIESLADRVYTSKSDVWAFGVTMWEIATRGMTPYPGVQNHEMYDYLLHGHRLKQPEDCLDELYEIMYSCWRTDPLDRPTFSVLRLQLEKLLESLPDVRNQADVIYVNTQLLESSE

Usually IC50 stands for the concentration that inhibits the measured activity by half. As for `COc1cc2nccc(Oc3ccc(NC(=O)C4(C(=O)Nc5ccc(F)cc5)CC4)cc3)c2cc1C(=O)NCCN(C)C` [Compound 10, 1-N-[4-[6-[2-(dimethylamino)ethylcarbamoyl]-7-methoxyquinolin-4-yl]oxyphenyl]-1-N′-(4-fluorophenyl)cyclopropane-1,1-dicarboxamide], the results for the IC50 in assay [1], in assay [2] and in assay [3] were 10 to 100 nM, at most 10 nM and at most 10 nM, respectively.

Turning to `COc1cc2nccc(Oc3ccc(NC(=O)C4(C(=O)Nc5ccc(F)cc5)CC4)cc3)c2cc1C(=O)NCCN1CCCCC1` [Compound 11, 1-N′-(4-fluorophenyl)-N-[4-[7-methoxy-6-(2-piperidin-1-ylethylcarbamoyl)quinolin-4-yl]oxyphenyl]cyclopropane-1,1-dicarboxamide], the IC50 is at most 10 nM against KDR; 10 to 100 nM on Met; at most 10 nM in assay [2]; at most 10 nM in assay [3]; at most 10 nM against AXL.

As for `COc1cc2nccc(Oc3ccc(NC(=O)C4(C(=O)Nc5ccc(F)cc5)CC4)cc3)c2cc1C(=O)NCCN1CCOCC1` [Compound 12, 1-N′-(4-fluorophenyl)-1-N-[4-[7-methoxy-6-(2-morpholin-4-ylethylcarbamoyl)quinolin-4-yl]oxyphenyl]cyclopropane-1,1-dicarboxamide], the IC50 against KDR was at most 10 nM; at Met, 10 to 100 nM; in assay [2] it was at most 10 nM; in assay [3], at most 10 nM; on AXL, at most 10 nM.

For `COc1cc2nccc(Oc3ccc(NC(=O)C4(C(=O)Nc5ccc(F)cc5)CC4)cc3)c2cc1C(=O)NC[C@H]1CCCN1` [Compound 21, 1-N′-(4-fluorophenyl)-1-N-[4-[7-methoxy-6-[[(2R)-pyrrolidin-2-yl]methylcarbamoyl]quinolin-4-yl]oxyphenyl]cyclopropane-1,1-dicarboxamide], the concentration for half-maximal inhibition (IC50) against KDR was 10 to 100 nM; on Met, 10 to 100 nM; in assay [2], at most 10 nM; in assay [3], at most 10 nM; on AXL, at most 10 nM.

For the molecule `COc1cc2nccc(Oc3ccc(NC(=O)C4(C(=O)Nc5ccc(F)cc5)CC4)cc3)c2cc1C(=O)NC[C@@H]1CCCN1` [Compound 22, 1-N′-(4-fluorophenyl)-1-N-[4-[7-methoxy-6-[[(2S)-pyrrolidin-2-yl]methylcarbamoyl]quinolin-4-yl]oxyphenyl]cyclopropane-1,1-dicarboxamide], the IC50 against KDR was 10 to 100 nM; at Met, 10 to 100 nM; in assay [2], at most 10 nM; in assay [3], at most 10 nM; at AXL, at most 10 nM.

On to `NC(=O)c1cc2c(Oc3ccc(NC(=O)C4(C(=O)Nc5ccc(F)cc5)CC4)cc3)ccnc2cc1Cl` [Compound 68, 1-N-[4-(6-carbamoyl-7-chloroquinolin-4-yl)oxyphenyl]-1-N′-(4-fluorophenyl)cyclopropane-1,1-dicarboxamide], for which the IC50 in assay [1] was in the range of 100 to 1000 nM; in assay [2], 10 to 100 nM; in assay [3], 10 to 100 nM.

In the case of `NC(=O)c1cc2c(Oc3ccc(NC(=O)C4(C(=O)Nc5ccc(F)cc5)CC4)cc3)ccnc2cc1Br` [Compound 69, 1-N-[4-(7-bromo-6-carbamoylquinolin-4-yl)oxyphenyl]-1-N′-(4-fluorophenyl)cyclopropane-1,1-dicarboxamide], the IC50 in assay [1] lay in the range of 100 to 1000 nM; in assay [2] it was 10 to 100 nM; in assay [3] it was 10 to 100 nM.

With `Cc1cc2c(Oc3ccc(NC(=O)C4(C(=O)Nc5ccc(F)cc5)CC4)cc3)ccnc2cc1C(=O)O` [Compound 141, 4-[4-[[1-[(4-fluorophenyl)carbamoyl]cyclopropanecarbonyl]amino]phenoxy]-6-methylquinoline-7-carboxylic acid], the IC50 in assay [1], in assay [2] and in assay [3] was over 1000 nM each time.
